Data taken from US20100256385A1, “PROSTAGLANDIN E RECEPTOR ANTAGONISTS” (ALLERGAN, INC., priority 2009, published 2010).

Experiments:
human osteoclasts = assay: Calcium Response in human osteoclasts; type: cell-based; conditions: for Calcium Response: agonist alone (FIG. 1, FIG. 2)

| melting point | SMILES | Calcium Response (human osteoclasts) | Block of the Calcium Response initiated by PGE2 (human osteoclasts; response initiated by PGE2 (FIG. 3)) |
| --- | --- | --- | --- |
| – | CCCCC[C@H](O)/C=C/[C@H]1[C@H](O)CC(=O)[C@@H]1C/C=C\CCCC(=O)O [PG-2] | does not cause a Calcium Response | – |
| – | CCCCC[C@H](O)/C=C/[C@H]1[C@H](O)CC(=O)[C@@H]1C/C=C\CCCC(=O)OCC(O)CO (stereo partly shown) [PG-2 Glycerol Ester] | induces a Calcium Response | – |
| 165 to 166 °C | O=C(CCc1ccc(F)cc1C[C@@H]1[C@H](c2nc(C(=O)NCCCCC3CCCCC3)co2)[C@H]2CC[C@H]1O2)NC(CO)CO [Example 1, N-(1,3-Dihydroxyprop-2-yl)-3-(2-{(1R,2R,3S,4R)-3-[4-(4-cyclohexyl-butylcarbamoyl)-oxazol-2-yl]-7-oxa-bicyclo[2.2.1]hept-2-ylmethyl}-4-fluoro-phenyl)-propionamide] | – | blocked |
